Counter-ions that a name gives are not always drawn. Like-named read-outs stand apart in the source and are kept apart here.
Columns and labels:
Format in all cases: cell-based
[1] = target: T1, SOAT (Homo sapiens, UniProt Q3KNW5); assay: Substrate screening: sodium-dependent uptake of radiolabeled compounds in SOAT-HEK293 cells; settings: SOAT-HEK293, vs sodium-free control
T1 construct: The full-length open reading frames of NTCP, ASBT, and SOAT were cloned; expressed in transfected cells; host or cells: Flp-In T-REX HEK293 (SOAT-HEK293), tetracycline-induced
T1 sequence (Q3KNW5 1-377): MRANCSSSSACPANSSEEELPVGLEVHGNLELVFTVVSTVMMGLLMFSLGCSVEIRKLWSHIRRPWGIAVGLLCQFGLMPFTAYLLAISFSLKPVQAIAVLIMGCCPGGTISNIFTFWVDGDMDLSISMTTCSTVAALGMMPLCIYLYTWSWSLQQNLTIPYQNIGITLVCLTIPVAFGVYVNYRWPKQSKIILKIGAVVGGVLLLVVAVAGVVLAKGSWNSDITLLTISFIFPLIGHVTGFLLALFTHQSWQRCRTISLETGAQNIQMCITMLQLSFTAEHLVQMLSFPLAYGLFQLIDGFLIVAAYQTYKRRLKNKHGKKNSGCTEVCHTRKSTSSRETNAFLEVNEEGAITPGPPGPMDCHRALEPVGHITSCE
Protocol: Stably SLC10 transporter transfected NTCP-HEK293, ASBT-HEK293, SOAT-HEK293 cells and the HEK293-FlpIn maternal cell line were seeded on 24-well plates (if not stated otherwise for individual assays). Well plates were coated with poly-D-lysine prior to seeding of 125,000 cells per well. Cells were grown with 1 ml of standard medium per well with or without tetracycline ([…]) for 72 h to induce carrier expression before respective assays were started. HEK293-FlpIn cells were cultivated with standard medium and served as control.
Uptake experiments were initiated by replacing the preincubation buffer by 500 μL transport buffer containing the radiolabeled test compound and were performed at 37°C. Transport was terminated by removing the transport buffer and washing five-times with ice-cold PBS. Cell monolayers were lysed in 1 N NaOH with 0.1% SDS and the cell-associated radioactivity was determined by liquid scintillation counting.
FIGURE 1 Comparative substrate screening for bile acids and sulfated steroids in NTCP-, ASBT-, and SOAT-HEK293 cells. Transport assays were performed with the indicated substrates in NTCP-HEK293, ABST-HEK293, SOAT-HEK293, and HEK293-FlpIn cells. Cells were washed and equilibrated with Na^+-containing transport buffer (filled bars) or with Na^+-free transport buffer (open bars) at 37°C. For uptake, cells were incubated with radiolabeled steroid compounds at a final concentration of 200 nM in Na^+-containing or Na^+-free transport buffer for 10 min. Radiolabeled bile acids were used at 1 µM concentrations and transport was analyzed over 30 min. HEK293-FlpIn cells served as additional controls. After the indicated time intervals, cells were washed with ice-cold PBS, lysed and subjected to liquid scintillation counting. […] 3-OH, trihydroxylated BAs; 2-OH, dihydroxylated BAs; 1-OH, monohydroxylated BAs.

[2] = target: T2, ASBT (Homo sapiens, UniProt Q12908); assay: Transport inhibition in ASBT-HEK293 cells; settings: substrate inhibitors, 1 min after 5 min preincubation
T2 construct: The full-length open reading frames of NTCP, ASBT, and SOAT were cloned; expressed in transfected cells; host or cells: Flp-In T-REX HEK293 (ASBT-HEK293), tetracycline-induced
T2 sequence (Q12908 1-348): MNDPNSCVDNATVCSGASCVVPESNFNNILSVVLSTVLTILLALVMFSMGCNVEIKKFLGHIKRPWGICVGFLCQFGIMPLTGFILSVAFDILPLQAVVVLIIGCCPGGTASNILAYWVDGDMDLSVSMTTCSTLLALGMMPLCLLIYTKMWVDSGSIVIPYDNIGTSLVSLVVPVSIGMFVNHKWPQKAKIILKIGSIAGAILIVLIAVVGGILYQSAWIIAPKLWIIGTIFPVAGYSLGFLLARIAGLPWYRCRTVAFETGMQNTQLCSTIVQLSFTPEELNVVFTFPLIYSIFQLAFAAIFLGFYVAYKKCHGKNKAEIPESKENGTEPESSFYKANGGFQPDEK
Protocol: (§1) Cells were washed three times with PBS and were preincubated with the respective inhibitor in sodium transport buffer for 5 min at 37°C. Uptake was initiated by adding the respective radiolabeled substrate to the well and incubating for a fixed time as indicated in the figures at 37°C. Transport was terminated by removing the transport buffer and washing five-times with ice-cold PBS. Cell monolayers were lysed in 1 N NaOH with 0.1% SDS and the cell-associated radioactivity and protein content was determined as described above. For uptake inhibition with the myr-preS1 peptide the sodium transport buffer contained additionally MEM-amino acid solution (ThermoFisher) at 1:50 dilution.
(§2) All transport or inhibition graphs were generated with GraphPad Prism 6.0 (GraphPad). Determination of IC50 values was done by nonlinear regression analysis using the equation log (inhibitor) vs. response settings. If not stated otherwise in the legends all data represent means ± SD of at least triplicate determinations of representative experiments.
(§3) FIGURE 3 Inhibition of NTCP, ASBT, and SOAT with substrate inhibitors. Transport of [^3H]TC, [^3H]TLC, and [^3H]DHEAS was analyzed in NTCP-HEK293, ASBT-HEK293, and SOAT-HEK293 cells in the presence of the substrate inhibitors TC, TLC, and DHEAS at increasing concentrations ranging from 100 nM till 1000 µM. After 5 min of preincubation with the respective inhibitory compound, 200 nM [^3H]TLC, [^3H]TC or [^3H]DHEAS were added for additional 1 min and the cell lysates were analyzed by liquid scintillation counting. Unspecific uptake of HEK293-FlpIn cells was set to 0%. Carrier-specific uptake without inhibitor was set to 100%.
(§4) Transport of [^3H]TC, [^3H]TLC, and [^3H]DHEAS was analyzed in NTCP-HEK293, ASBT-HEK293, and SOAT-HEK293 cells in the presence of different supposed non-substrate triterpenoid inhibitors as indicated at increasing concentrations ranging from 100 nM till 1000 µM. After 5 min of preincubation with the respective inhibitory compound, 1 µM [^3H]TLC, [^3H]TC or [^3H]DHEAS were added for additional 10 min at 37°C and the cell lysates were analyzed by liquid scintillation counting. Experiments performed without inhibitor were set to 100%. Means of negative controls were subtracted to calculate net transport rates (expressed as percentage of control). Data represent means ± SD of quadruplicate determinations of representative experiments.

[3] = target: T1, SOAT; assay: Transport inhibition in SOAT-HEK293 cells; settings: substrate inhibitors, 1 min after 5 min preincubation
Protocol: as §1, §2, §3, §4

[4] = SOAT IC50, substrate [3H]DHEAS, 200 nM [3H]DHEAS
[5] = SOAT IC50, substrate [3H]TLC, 200 nM [3H]TLC

SMILES: C[C@]12CC[C@H](OS(=O)(=O)O)CC1=CC[C@@H]1[C@@H]2CC[C@]2(C)C(=O)CC[C@@H]12 [DHEAS, Dehydroepiandrosterone sulfate]
- Transport activity grading SOAT (mean uptake) ([1]; radiolabeled steroid compounds 200 nM, 10 min): ++ (“++” for values between 10 and 100)
- IC50 ([2]; ASBT IC50, substrate [3H]TC, 200 nM [3H]TC): 453 µM
- IC50 ([2]; ASBT IC50, substrate [3H]TLC, 200 nM [3H]TLC): > 1000 µM
- IC50 [3, 4]: 51.7 µM
- IC50 [3, 5]: 15 µM

SMILES: C[C@H](CCC(=O)NCCS(=O)(=O)O)[C@H]1CC[C@H]2[C@@H]3[C@H](O)C[C@@H]4C[C@H](O)CC[C@]4(C)[C@H]3C[C@H](O)[C@]12C [Taurocholic acid]
- IC50 [3, 4]: 99.7 µM
- IC50 [3, 5]: 143 µM

SMILES: C[C@H](CCC(=O)NCCS(=O)(=O)O)[C@H]1CC[C@H]2[C@@H]3CC[C@@H]4C[C@H](O)CC[C@]4(C)[C@H]3CC[C@]12C [Taurolithocholic acid]
- Transport activity grading SOAT (mean uptake) ([1]; radiolabeled bile acids 1 µM, 30 min): ++ (“++” for values between 500 and 1000)
- IC50 ([2]; 200 nM [3H]TC, read-out: ASBT IC50, substrate [3H]TC): 1.9 µM
- IC50 ([2]; 200 nM [3H]TLC, read-out: ASBT IC50, substrate [3H]TLC): 4 µM
- IC50 ([3]; 200 nM [3H]DHEAS, read-out: SOAT IC50, substrate [3H]DHEAS): 3.9 µM
- IC50 ([3]; 200 nM [3H]TLC, read-out: SOAT IC50, substrate [3H]TLC): 2.6 µM

From paper PMC8165160, “Substrate Specificities and Inhibition Pattern of the Solute Carrier Family 10 Members NTCP, ASBT and SOAT” (Frontiers in Molecular Biosciences, 2021)
